Reference: US12357636B2 (Urovant Sciences GmbH, priority 2018, dated 2025)

Columns and labels:
[1] = biological target: β2-AR (Homo sapiens, UniProt P07550); test: competition binding assay, membranes with recombinant β2-AR
[2] = multiple rising dose Phase 1 pharmacokinetics; assay type: in vivo, human
Description: Although exposures were similar in middle-aged males when compared to young males, plasma concentrations were higher in elderly compared to middle-aged and young subjects.

[3] = drug interaction: effect of ketoconazole, diltiazem or tolterodine on vibegron PK; assay type: in vivo, human
Description: However, these interactions are not expected to be clinically significant.

[4] = tested on: men and women with OAB; test: Phase 2b study in OAB: efficacy (voiding diary); assay type: in vivo, human; conditions: OAB Wet
Description: Part 2 was designed to continue to assess the safety and efficacy of concomitant dosing. […] Subjects in both Part 1 and Part 2 had the option of enrolling in a 1-year extension. Participants were required to keep a voiding diary, recording the occurrence of each strong urge, total incontinence, and urge incontinence episode. Efficacy data for Part 1 and Part 2 are summarized herein.
The total number of urgency incontinence episodes must have exceeded the total number of stress incontinence episodes for all subjects.
Conversely, a dose dependent effect on urge incontinence or total incontinence was not observed.

[5] = tested on: healthy volunteers; test: thorough QT study: RR interval and blood pressure (Table 19); assay type: in vivo, human
[6] = dose-Cmax and dose-AUC models, log-log regression and simulations for 75 mg; design: species or system human
Procedure: In order to contextualize PK parameters of a 75 mg dose, dose-Cmax and dose-AUC models were created using data from Phase 1 studies.

[7] = biological target: CYP3A4 (Homo sapiens, UniProt P08684); test: in vitro CYP metabolism; assay type: in vitro ADME
CYP3A4, sequence (P08684 whole entry): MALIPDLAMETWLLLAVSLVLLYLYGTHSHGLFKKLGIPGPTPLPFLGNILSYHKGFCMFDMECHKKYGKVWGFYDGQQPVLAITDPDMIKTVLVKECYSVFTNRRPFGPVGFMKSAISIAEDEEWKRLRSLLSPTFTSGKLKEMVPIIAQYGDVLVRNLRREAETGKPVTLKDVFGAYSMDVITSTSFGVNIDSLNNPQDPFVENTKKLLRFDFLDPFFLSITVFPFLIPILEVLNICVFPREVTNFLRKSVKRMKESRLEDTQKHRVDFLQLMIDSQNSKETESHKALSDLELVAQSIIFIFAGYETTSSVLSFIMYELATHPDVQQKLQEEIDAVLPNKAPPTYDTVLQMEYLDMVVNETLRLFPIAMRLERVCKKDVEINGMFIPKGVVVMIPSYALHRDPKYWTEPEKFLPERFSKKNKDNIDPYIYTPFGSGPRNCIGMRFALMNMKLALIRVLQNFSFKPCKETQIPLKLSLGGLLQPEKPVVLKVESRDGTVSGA

[8] = tested on: men and women with overactive bladder; test: Phase 3 study vibegron 75 mg vs placebo and tolterodine, 12 weeks, OAB: efficacy (Tables 21-25); assay type: in vivo, human
Procedure: Enrollment of patients included individuals with OAB Wet (those with UUI, the involuntary loss of urine accompanied by urgency) and OAB Dry (those without UUI). A total of 1,518 patients were randomized across 215 study sites into one of three groups for a 12-week treatment period.
The study consisted of a Screening Period (1 to 5 weeks), a single-blind Run-in Period (2 weeks), a randomized double-blind Treatment Period (12 weeks), and a Follow-up Period (4 weeks).
Tolterodine ER 4 mg was the active control. […] Between the Baseline and Week 12 Visits, patients had study assessments at Week 4 and Week 8.
For the analysis of the co-primary endpoints (change from baseline in average number of daily micturitions at Week 12 and change from baseline in average number of daily urge urinary incontinence episodes at Week 12, and placebo adjustment of each), a mixed model for repeated measure (MMRM) with restricted maximum likelihood estimation was used. This model corrects for dropout and accounts for the fact that measurements taken on the same patient over time tend to be correlated by using all available information on patients within the same covariate set to derive an estimate of the treatment effect for a dropout-free population. The analysis model for each efficacy endpoint includes terms for treatment, visit, OAB Type (Wet vs Dry), Sex (Female vs Male), Region (US vs Rest of World), baseline score, and interaction of visit by treatment.
Primary inferences were drawn from treatment differences for the changes from baseline derived from the MMRM models at Week 12. As part of secondary objectives, the treatment differences for each post baseline visit were also derived using the same MMRM model.
An unstructured covariance matrix was used to model the correlation among repeated measurements. The Kenward-Roger adjustment was used with restricted (or residual) maximum likelihood (REML) to make statistical inference. If the unstructured covariance model fails to converge with the default Newton-Raphson algorithm, the Fisher scoring algorithm or other appropriate methods can be used to provide initial values of the covariance parameters. In the rare event that none of the above methods yield convergence, a structured covariance would be used to model the correlation among repeated measurements.
The change from baseline efficacy endpoints was analyzed using the same MMRM model described for co-primary endpoints.
Analysis of the efficacy endpoints of proportion of patients with at least 75% reduction in the average number of daily UUI episodes at Week 12 and proportion of patients with 50% reduction in the average number of daily urgency episodes at Week 12 was analyzed using the Cochran-Mantel-Haenszel risk difference estimate. Missing Week 12 data was analyzed using multiple imputation. The estimated difference in the proportion of responders and 95% confidence interval for the difference was calculated using the Cochran-Mantel-Haenszel risk difference estimate stratified by OAB Type (Wet vs Dry) and Sex (Female vs Male), with weights proposed by Greenland and Robins.
The same statistical methods that were used to analyze the co-primary and secondary efficacy endpoints were used for the exploratory analyses. Exploratory responder analyses were analyzed using the same Cochran-Mantel-Haenszel model as described above for secondary endpoints.

[9] = tested on: men and women with overactive bladder; test: Phase 3 study vibegron 75 mg: post-void residual urine volume (Tables 26-28); assay type: in vivo, human
Description: The risk of acute urinary retention or morbidities related to an increase in Post-Void Residual (PVR) is a concern with antimuscarinic therapy that promotes smooth muscle relaxation by inhibiting acetylcholine-induced smooth muscle contraction. If, during contraction, the bladder cannot generate enough pressure to overcome the outlet resistance in the urethra, either because of poor detrusor contractility or profound obstruction (most commonly from BPH), acute urinary retention or incomplete emptying of the bladder may result.
The volume of urine that remains in the bladder after voiding (PVR) is an objective measurement that may serve as a proxy for impaired ability to void.
PVR were performed via ultrasound at the visits indicated in the Schedule of Activities.
In addition, the data on the Post Void Residual Urine Volume (PVR) in all males and males with a medical history of BPH is shown in Tables 26 and 27, respectively.

[10] = multiple doses of 240 mg or 180 mg diltiazem, vibegron 100 mg
[11] = Males with medical history of BPH
[12] = all males, vibegron 75 mg or tolterodine ER 4 mg QD

β2-AR, sequence (P07550 whole entry): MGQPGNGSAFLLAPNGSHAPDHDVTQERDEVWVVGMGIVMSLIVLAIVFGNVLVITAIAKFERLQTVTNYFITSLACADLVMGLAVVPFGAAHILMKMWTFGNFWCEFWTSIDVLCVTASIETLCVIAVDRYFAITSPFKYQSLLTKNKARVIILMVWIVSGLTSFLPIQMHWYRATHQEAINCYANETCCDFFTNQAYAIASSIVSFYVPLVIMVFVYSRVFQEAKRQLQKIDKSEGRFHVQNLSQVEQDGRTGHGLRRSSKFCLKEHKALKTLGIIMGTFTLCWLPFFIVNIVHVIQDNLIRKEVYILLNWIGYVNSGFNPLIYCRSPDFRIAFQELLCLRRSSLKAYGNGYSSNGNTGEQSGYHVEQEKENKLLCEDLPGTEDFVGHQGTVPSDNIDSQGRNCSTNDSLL

O=C(Nc1ccc(C[C@@H]2CC[C@H]([C@H](O)c3ccccc3)N2)cc1)[C@@H]1CCc2nccc(=O)n21 [Vibegron, (6S)—N-[4-[[(2S,5R)-5-[(R)-hydroxy(phenyl)methyl]pyrrolidin-2-yl]methyl]phenyl]-4-oxo-7,8-dihydro-6H-pyrrolo[1,2-a]pyrimidine-6-carboxamide]
binding to β2-AR [1]: does not bind | steady state Cmax, elderly compared to young males ([2]; 100 mg QD): ~1.3 fold | fe0-24hr, ss ([2]; 100 mg, elderly subjects): ~17% | AUC0-24 ([2]; 200 mg multiple dose, day 14, healthy young males): 3200 ± 1120 ng·h/mL | fe0-24hr, ss ([2]; 100 and 150 mg, young males): ~14% | steady state exposure (AUC0-24) higher in elderly Japanese than elderly non-Japanese ([2]; Day 14): 35% | Cmax increase in elderly Japanese compared to elderly non-Japanese ([2]; in vivo): 82% | higher Cmax in elderly and females than healthy young males ([2]; in vivo): 50-70% | steady state AUC, middle-aged females compared to middle-aged males ([2]; in vivo): ~1.5 fold | steady state exposures higher in Japanese than non-Japanese young males ([2]; in vivo): ~30% | time to steady state ([2]; once daily dosing): ≤ 7 days | exposure (AUC) higher in females compared with males ([2]; regardless of age): 50% | effect of tolterodine ER 4 mg on the pharmacokinetics of vibegron ([3]; in vivo): no effect | GM AUC0-inf increase with diltiazem [3, 10]: 63% | GM Cmax increase with diltiazem [3, 10]: 68% | Urgency Incontinence Episodes daily number, Week 8 mean ([4]; vibegron 15 mg QD): 1.12 | Total Incontinence Episodes daily number, Week 8 mean ([4]; vibegron 100 mg QD): 1.12 | Maximum Mean Placebo Corrected Change from Baseline Diastolic BP (90% CI) ([5]; single dose 200 mg): 2.42 mmHg | Maximum Mean Placebo Corrected Change from Baseline RR interval (90% CI) ([5]; single dose 200 mg): -84.36 ms | Maximum Mean Placebo Corrected Change from Baseline Systolic BP (90% CI) ([5]; single dose 200 mg): 2.20 mmHg | Maximum Mean Placebo Corrected Change from Baseline Diastolic BP (90% CI) ([5]; single dose 400 mg): 3.99 mmHg | Maximum Mean Placebo Corrected Change from Baseline RR interval (90% CI) ([5]; single dose 400 mg): -162.45 ms | Maximum Mean Placebo Corrected Change from Baseline Systolic BP (90% CI) ([5]; single dose 400 mg): 3.97 mmHg | AUC of 75 mg lower than 200 mg single dose [6]: ~2 fold | AUC of 75 mg lower than 400 mg single dose [6]: ~6 fold | Cmax of 75 mg lower than 200 mg single dose [6]: approximately 3.3 fold | Cmax of 75 mg lower than 400 mg single dose [6]: ~9.2 fold | increase in Cmax with increase in dose from 50 to 100 mg [6]: ~4 fold | reduction in Cmax on decreasing dose from 100 mg to 75 mg [6]: ~40% | predominant CYP responsible for in vitro metabolism [7]: CYP3A4 | total incontinence episodes vs baseline ([8]; 75 mg QD, 12 weeks): reduced by half | Micturitions: Week 12 CFB Mean ([8]; Males with BPH, descriptive statistics): −1.50 | OAB-q Coping Score, Week 12 LS Mean Change from Baseline (Placebo-Adjusted) ([8]; Week 12, key secondary endpoint, once-daily vibegron 75 mg or tolterodine): 3.6 | PVR Categories at Week 12: <100 mL [9, 11]: 96.6% | PVR Categories at Week 12: ≥100 mL to <200 mL [9, 11]: 0% | PVR Categories at Week 12: ≥200 mL to <350 mL [9, 11]: 3.4% | PVR Categories at Week 12: ≥350 mL [9, 11]: 0% | PVR Mean Change from Baseline at Week 12 (SD) [9, 11]: −3.4 (42.45) mL | PVR Mean Change from Baseline at Week 12 (SD) [9, 12]: 2.2 (48.45) mL | PVR category <100 mL at Week 12 [9, 12]: 89.7% | PVR category ≥100 mL to <200 mL at Week 12 [9, 12]: 7.7% | PVR category ≥200 mL to <350 mL at Week 12 [9, 12]: 2.6% | PVR category ≥350 mL at Week 12 [9, 12]: 0 | PVR Categories at Week 12: <100 mL ([9]; study population as a whole): 89.9% | PVR Categories at Week 12: ≥100 mL to <200 mL ([9]; study population as a whole): 3.5% | PVR Categories at Week 12: ≥200 mL to <350 mL ([9]; study population as a whole): 0.6% | PVR Categories at Week 12: ≥350 mL ([9]; study population as a whole): 0% | PVR Mean Change from Baseline at Week 12 (SD) ([9]; study population as a whole): 0.4 (38.27) mL
